Literature values in patent US20180271919A1, “PROBIOTIC COMPOSITION AT LEAST COMPRISING BIFIDOBACTERIUM BIFIDUM W23 AND CAPABLE OF CONTROLLING INTESTINAL BARRIER FUNCTION” (Winclove Holding B.V., priority 2015, published 2018).

Test system: patients with schizophrenia
Conditions: patients with schizophrenia prescribed the drug

## CN1CCN(C2=Nc3cc(Cl)ccc3Nc3ccccc32)CC1 [clozapine]
  Rate of metabolic syndrome: 52%
